Results on 18 molecules are retold here after ChEMBL document CHEMBL5038644 (J Med Chem, 2022).

Broadly, the Ki is a dissociation constant, usually derived from enzyme kinetics or from competition with a known ligand. One may read the Emax as the maximal effect, on the per cent scale that the assay sets. In general, AUC refers to the area under the concentration-time curve, a measure of exposure. High values mean more exposure, low ones less exposure. A word on the half-life: it is the time in which the quantity being followed falls by half.

The source made the active and inactive calls. No cut-off for these calls is given here. Bridge positions count the residues as written; N and C are the ends. Square brackets hold non-standard residues; d marks the D form. Peptide text beside a SMILES is read from it. AllylGly = C=CC[C@H](N)C(=O)O; Nle = CCCC[C@H](N)C(=O)O; Ava = NCCCCC(=O)O

One series concerns the target T1, Apelin receptor (Homo sapiens, UniProt P35414).
T1 sequence (P35414 whole entry): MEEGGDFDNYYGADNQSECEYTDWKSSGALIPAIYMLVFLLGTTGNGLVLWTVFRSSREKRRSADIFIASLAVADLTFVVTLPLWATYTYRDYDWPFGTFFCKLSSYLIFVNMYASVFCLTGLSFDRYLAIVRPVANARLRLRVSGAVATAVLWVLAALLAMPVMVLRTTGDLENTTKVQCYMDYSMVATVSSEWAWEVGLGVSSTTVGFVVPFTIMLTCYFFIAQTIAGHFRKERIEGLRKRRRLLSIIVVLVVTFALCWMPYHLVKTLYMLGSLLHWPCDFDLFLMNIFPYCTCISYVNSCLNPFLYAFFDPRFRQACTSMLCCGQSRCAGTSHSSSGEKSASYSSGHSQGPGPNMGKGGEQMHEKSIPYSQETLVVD
As to the kind of experiment: Displacement of [125I]-[Nle75,Tyr77][Pyr1]-Ape13 from YFP-tagged human APJ expressed in HEK293 cell membranes assessed as inhibition constant incubated for 1 hr by scintillation counting method. On the technique in general: Displacement assays read how much labelled ligand stays bound in the presence of the test substance.

Series [1] has as its target T2, Apelin receptor (Homo sapiens) (UniProt P35414).
T2 sequence (whole entry): T1 sequence (P35414 whole entry)
As to the kind of experiment: Agonist activity at human APJ expressed in HEK293 cell membrane assessed as maximal efficacy for recruitment of PDZ-RhoGEF Galphai1 to cell membrane by BRET-based G protein dissociation assay relative to control. In kind it is functional.

In series [2] the target is T2, Apelin receptor (Homo sapiens). Nature of the series: Agonist activity at human APJ expressed in HEK293 cell membrane assessed as maximal efficacy for recruitment of beta-arrestin2 to receptor by BRET-based beta-arrestin2 assay relative to control. As to conditions: filed as agonist. In kind it is functional. A general note: BRET reads energy transfer from a luciferase to a nearby fluorophore.

Series [3] shares this target. Nature of the series: Agonist activity at human APJ expressed in HEK293 cells assessed as maximal efficacy for dissociation of G alphai1 from the G beta gamma subunit by BRET-based G protein dissociation assay relative to control. The note with it: filed as agonist. In kind it is functional, cell-based.
The subject of series [4] is Rattus norvegicus. Nature of the series: Hypotensive effect in Sprague-Dawley rat assessed as decrease in blood pressure at 19.6 to 65 nmol/kg, iv relative to control. In kind it is functional. As to conditions: dose 19.6-65 nmol/kg.
The nature of series [5]: AUC in Sprague-Dawley rat plasma at 3 mg/kg, iv by LC/MS-MS analysis. Type of series: ADME, organism-based. More on the design: dose 3 mg/kg. The note with it: in vivo.
For series [6], the system named is Rattus norvegicus. Nature of the series: Cardioprotective activity in Sprague-Dawley rat assessed as effect on left ventricular fractional shortening at 0.2 micromol/kg, sc after 3 hrs by echocardiography. Type of series: functional, organism-based. The note with it: dose 0.2 µmol/kg.
The nature of series [7]: Stability in Sprague-Dawley rat plasma at 3 mg/kg, iv upto 2 hrs by LC/MS-MS analysis. Type of series: ADME, organism-based. The note with it: in vivo.
Series [8] concerns Rattus norvegicus. As to the kind of experiment: Cardioprotective activity in Sprague-Dawley rat assessed as effect on cardiac output in sprague-dawley rat at 2 micromol/kg, sc after 3 hrs by echocardiography relative to control. Type of series: functional. As to conditions: dose 2 µmol/kg.
Series [9] relates to Rattus norvegicus. As to the kind of experiment: Cardioprotective activity in Sprague-Dawley rat assessed as effect on left ventricular fractional shortening at 2 micromol/kg, sc after 3 hrs by echocardiography relative to control. Type of series: functional. As to conditions: dose 2 µmol/kg.
A short description of series [10]: Stability in Sprague-Dawley rat plasma assessed as half life measured upto 24 hrs by UPLC-MS analysis. In kind it is ADME, cell-free.

In the case of `CC(C)C[C@@H]1NC(=O)[C@H](CCCNC(=N)N)NC(=O)[C@@H](N)C/C=C\C[C@@H](C(=O)N[C@@H](CCCCN)C(=O)NCC(=O)N2CCC[C@H]2C(=O)N[C@@H](C)C(=O)O)NC(=O)[C@H](CO)NC1=O` (H-[AllylGly]RLS[AllylGly]KGPA-OH; staple (Z) 1-5), the Ki on Apelin receptor was above 10 µM.
In the case of `CCCC[C@H](NC(=O)[C@@H]1CCCN1C(=O)CNC(=O)[C@H](CCCCN)NC(=O)[C@@H]1CCN(S(=O)(=O)c2ccccc2[N+](=O)[O-])C/C=C/C[C@H](N)C(=O)N[C@@H](CCCNC(=N)N)C(=O)N[C@@H](CC(C)C)C(=O)N[C@@H](CO)C(=O)N1)C(=O)N1CCC[C@H]1C(=O)N[C@@H](Cc1ccccc1)C(=O)O`, the values for the Emax in series [1] (filed as agonist), in series [2] and in series [3] were 93%, 82% and 106%, respectively.
As to `CCCC[C@H](NC(=O)[C@@H]1CCCN1C(=O)CNC(=O)[C@@H]1C/C=C\C[C@H](N)C(=O)N[C@@H](CCCNC(=N)N)C(=O)N[C@@H](CC(C)C)C(=O)N[C@@H](CO)C(=O)N1)C(=O)O` (H-[AllylGly]RLS[AllylGly]GP[Nle]-OH; staple (Z) 1-5), the Ki at Apelin receptor was above 10 µM.
Take `CCCC[C@H](NC(=O)[C@@H]1CCCN1C(=O)CNC(=O)[C@H](CCCCN)NC(=O)[C@@H]1C/C=C\C[C@H](N)C(=O)N[C@@H](CCCNC(=N)N)C(=O)N[C@@H](CC(C)C)C(=O)N[C@@H](CO)C(=O)N1)C(=O)O`: in the series on Rattus norvegicus [4], the Activity is reported as -13 mmHg. Also, the maximal effect (Emax) in [1] (filed as agonist) is 59%; in series [2], 69%; in series [3], 99%.
As to `CCCC[C@H](NC(=O)[C@@H]1CCCN1C(=O)CNC(=O)[C@H](CCCCN)NC(=O)[C@@H]1CCNC/C=C/C[C@H](NC(=O)[C@H](CCCNC(=N)N)NC(=O)[C@@H]2CCC(=O)N2)C(=O)N[C@@H](CCCNC(=N)N)C(=O)N[C@@H](CC(C)C)C(=O)N[C@@H](CO)C(=O)N1)C(=O)N1CCC[C@H]1C(=O)N[C@@H](Cc1ccccc1)C(=O)O`, the Emax turned out to be 95% in series [1] (filed as agonist), 86% in [2] and 100% in series [3].
On to `CCCC[C@H](NC(=O)[C@@H]1CCCN1C(=O)CNC(=O)[C@H](CCCCN)NC(=O)[C@@H]1CCN(C)C/C=C/C[C@H](NC(=O)[C@H](CCCNC(=N)N)NC(=O)[C@@H]2CCC(=O)N2)C(=O)N[C@@H](CCCNC(=N)N)C(=O)N[C@@H](CC(C)C)C(=O)N[C@@H](CO)C(=O)N1)C(=O)N1CCC[C@H]1C(=O)N[C@@H](Cc1ccccc1)C(=O)O`, for which the figures for the Emax in series [1] (filed as agonist), in series [2] and in [3] were 97%, 90% and 102%, respectively.
For the molecule `CC(C)C[C@@H]1NC(=O)[C@H](CCCNC(=N)N)NC(=O)[C@@H](N)C/C=C\C[C@@H](C(=O)N[C@@H](CCCCN)C(=O)NCC(=O)N2CCC[C@H]2C(=O)N[C@H](Cc2cccc3ccccc23)C(=O)O)NC(=O)[C@H](CO)NC1=O`, the AUC in series [5] is 1.33 mg·min/mL. For the same molecule, the result in the series on Rattus norvegicus [6] was Active. The Stability entry in series [7] is “Stable”. The values for the Activity in the series on Rattus norvegicus [4], with Rattus norvegicus [8] and in the series with Rattus norvegicus [9] were -24 mmHg, 22% and 22%, respectively. Besides, the maximum response (Emax) worked out at 3% in series [1], 70% in series [2] and 103% in series [3].
Take `CC(C)C[C@@H]1NC(=O)[C@H](CCCNC(=N)N)NC(=O)[C@@H](N)C/C=C\C[C@@H](C(=O)N[C@@H](CCCCN)C(=O)O)NC(=O)[C@H](CO)NC1=O` (H-[AllylGly]RLS[AllylGly]K-OH; staple (Z) 1-5): the inhibitory constant (Ki) on Apelin receptor was above 10 µM.
For `CCCC[C@H](NC(=O)[C@@H]1CCCN1C(=O)CNC(=O)[C@H](CCCCN)NC(=O)[C@@H]1Cc2cncn2C/C=C/C[C@H](NC(=O)[C@H](CCCNC(=N)N)NC(=O)[C@@H]2CCC(=O)N2)C(=O)N[C@@H](CCCNC(=N)N)C(=O)N[C@@H](CC(C)C)C(=O)N[C@@H](CO)C(=O)N1)C(=O)N1CCC[C@H]1C(=O)N[C@@H](Cc1ccccc1)C(=O)O`, the Activity in the series on Rattus norvegicus [4] is reported as -36 mmHg. The maximum response (Emax) in [1] (filed as agonist) was 98%; in series [2], 115%; in series [3] it was 99%.
In the case of `CCCC[C@H](NC(=O)[C@@H]1CCCN1C(=O)CNC(=O)[C@H](CCCCN)NC(=O)[C@@H]1CC(=O)NCCCC[C@H](NC(=O)[C@H](CCCNC(=N)N)NC(=O)[C@@H]2CCC(=O)N2)C(=O)N[C@@H](CCCNC(=N)N)C(=O)N[C@@H](CC(C)C)C(=O)N[C@@H](CO)C(=O)N1)C(=O)N1CCC[C@H]1C(=O)N[C@@H](Cc1ccccc1)C(=O)O` (HELM PEPTIDE1{[Glp].R.K.R.L.S.D.K.G.P.[Nle].P.F}$PEPTIDE1,PEPTIDE1,3:R3-7:R3$$$V2.0), the Ki on Apelin receptor is 0.039 µM.
Still for that read-out and setting: to `CCCC[C@H](NC(=O)[C@@H]1CCCN1C(=O)CCCCNC(=O)[C@@H]1C/C=C\C[C@H](N)C(=O)N[C@@H](CCCNC(=N)N)C(=O)N[C@@H](CC(C)C)C(=O)N[C@@H](CO)C(=O)N1)C(=O)O` (H-[AllylGly]RLS[AllylGly][Ava]P[Nle]-OH; staple (Z) 1-5) belongs above 10 µM.
Consider `CCCC[C@H](NC(=O)[C@@H]1CCCN1C(=O)CNC(=O)[C@H](CCCCN)NC(=O)[C@@H]1C/C=C\C[C@H](N)C(=O)N[C@@H](CCCNC(=N)N)C(=O)N[C@@H](CC(C)C)C(=O)N[C@@H](CO)C(=O)N1)C(=O)N1CCC[C@H]1C(=O)N[C@@H](Cc1ccccc1)C(=O)O`, for which the Activity with Rattus norvegicus [4] was -27 mmHg. Further, the maximum response (Emax) in series [1] (filed as agonist) was 98%; in series [2], 98%; in series [3], 100%.
For the molecule `CCCC[C@H](NC(=O)[C@@H]1CCCN1C(=O)CNC(=O)[C@H](CCCCN)NC(=O)[C@@H]1C/C=C\C[C@H](NC(=N)N)C(=O)N[C@@H](CCCNC(=N)N)C(=O)N[C@@H](CC(C)C)C(=O)N[C@@H](CO)C(=O)N1)C(=O)N1CCC[C@H]1C(=O)N[C@@H](Cc1ccccc1)C(=O)O`, the maximal response (Emax) in series [1] (filed as agonist) came out at 105%; in [2] it was 92%; in [3], 103%.
As to `CCCC[C@H](NC(=O)[C@@H]1CCCN1C(=O)CNC(=O)[C@H](CCCCN)NC(=O)[C@@H]1CCN(S(=O)(=O)c2ccccc2[N+](=O)[O-])C/C=C/C[C@H](NC(=O)[C@H](CCCNC(=N)N)NC(=O)[C@@H]2CCC(=O)N2)C(=O)N[C@@H](CCCNC(=N)N)C(=O)N[C@@H](CC(C)C)C(=O)N[C@@H](CO)C(=O)N1)C(=O)N1CCC[C@H]1C(=O)N[C@@H](Cc1ccccc1)C(=O)O`, the Emax in series [1] (filed as agonist) worked out at 92%; in series [2], 98%; in series [3] it was 102%.
The matching figures for `CC(C)C[C@@H]1NC(=O)[C@H](CCCNC(=N)N)NC(=O)[C@@H](N)C/C=C\C[C@@H](C(=O)N[C@@H](CCCCN)C(=O)NCC(=O)N2CCC[C@H]2C(=O)N[C@H](Cc2ccc(O)cc2)C(=O)O)NC(=O)[C@H](CO)NC1=O`: 45%, 54% and 100%.
As for `CCCC[C@H](NC(=O)[C@@H]1CCCN1C(=O)CNC(=O)[C@H](CCCCN)NC(=O)[C@@H]1C/C=C\C[C@H](NC(=O)[C@H](CCCNC(=N)N)NC(=O)[C@@H]2CCC(=O)N2)C(=O)N[C@@H](CCCNC(=N)N)C(=O)N[C@@H](CC(C)C)C(=O)N[C@@H](CO)C(=O)N1)C(=O)N1CCC[C@H]1C(=O)N[C@@H](Cc1ccccc1)C(=O)O`, the figures for the maximal response (Emax) in series [1] (filed as agonist), in series [2] and in series [3] were 98%, 98% and 101%, respectively.
Take `CC(C)C[C@@H]1NC(=O)[C@H](CCCNC(=N)N)NC(=O)[C@@H](N)C/C=C\C[C@@H](C(=O)N[C@@H](CCCCN)C(=O)NCC(=O)N2CCC[C@H]2C(=O)N[C@H](Cc2ccc(OCc3ccccc3)cc2)C(=O)O)NC(=O)[C@H](CO)NC1=O`: the maximal effect (Emax) in [1] (filed as agonist) amounted to 48%; in series [2], 78%; in [3], 104%.
In the case of `C=CC[C@H](NC(=O)[C@H](CO)NC(=O)[C@H](CC(C)C)NC(=O)[C@H](CCCNC(=N)N)NC(=O)[C@@H](N)CC=C)C(=O)N[C@@H](CCCCN)C(=O)NCC(=O)N1CCC[C@H]1C(=O)N[C@@H](CCCC)C(=O)N1CCC[C@H]1C(=O)N[C@@H](Cc1ccccc1)C(=O)O`, the half-life in [10] is 6 min. Besides, at Apelin receptor, the Ki stood at 0.17 µM.
